# Test results: patent US20100197625A1, “SYNTHETIC LIPOPHILIC INOSITOL GLYCANS FOR TREATMENT OF CANCER AND GLUCOSE-METABOLISM DISORDERS” (priority 2006, published 2010)
# “Also recorded” adds a separate entry of the source.
# What was measured:
# [1] = system: Panc-1 cells; test: Lactate production in Panc-1 cells; format: cell-based, human; conditions: 1 hour incubation in serum free media
# Experimental: (§1) Human pancreatic cancer cell lines (Panc-1, MiaPaca2, BXPC3, Aspc 1), human hepatoma cell line (HuH7), human gastric cancer cell lines (AGS, MKN45), human colon cancer cell line (CoCM-1), human mammary cancer cell line (MCF-7), human neuroblastoma (SH-SY5Y), human prostate cancer cells (PC3), and murine Ehrlich ascites cancer cells and mouse 3T3-L1 fibroblasts were obtained from American Type Culture Collection (Rockville, Md., USA). The cancer cells were cultured in RPMI 1640 containing 10% fetal calf serum. Cultures were maintained at 37° C. in a humidified atmosphere of 5% CO2.
# [2] = system: Panc-1 cells; test: Cell proliferation / cell death assay, Panc-1; format: cell-based, human
# Experimental: as §1
# (§2) Cell proliferation assays were performed with the CellTiter 96 AQueous One Solution Cell Proliferation Assay kit according to the manufacturer's instructions (Promega, Madison, Wis., USA). Briefly, 5×10^3 cells/well in medium were placed onto 96-well plates. IGs were added to cellular cultures at final concentrations of 0, 1, 10, and 100 μM. […] of CellTiter 96 AQueous One Solution Reagent, which contains a tetrazolium compound, 3-(4,5-dimethylthiazol-2-yl)-5-(3-carboxymethoxyphenyl)-2-(4-sulfophenyl)-2H-tetrazolium, an inner salt; MTS was added to the culture medium. After incubating the plate for 1 h in a CO2 incubator, absorbance at 490 nm was recorded with a 96-well plate reader.
# [3] = system: db/db mice; test: Intraperitoneal IG1 for 7 days, db/db mice; format: in vivo; conditions: intraperitoneal for every 7 days, data not shown
# Experimental: (§3) Male C57BL/6 mice were housed individually and given free access to a standard diet (65% carbohydrate, 4% fat, and 24% protein) or a high-fat diet (Quick Fat; 60.2% carbohydrate, 15.3% fat, and 24.5% protein; Clea Japan, Tokyo, Japan), starting at 5 weeks of age, for 5 weeks. Db/db mice also were housed individually and given free access to a standard diet. C57BL/6 mice at 5 weeks of age, were received a single dose of 75 μg/g body weight streptozotoxin (STZ). 7 days after injections, the mice, whose fasting plasma glucose concentrations were over 400 mg/dl, were used as STZ-diabetic mice. […]
# (§4) Frozen livers were homogenized, and triglycerides were extracted with CHCl3:CH3OH (2:1, vol:vol), dried and resuspended in 2-propanol (17). Triglyceride contents were measured using Lipidos liquid (TOYOBO, Osaka, Japan). […] Glycogen content was determined by the phenol-sulfuric acid spectrophotometric method at 490 nm (18) and expressed as micrograms of glycogen per milligram of liver.
# (§5) Blood glucose was assayed with Glucose Ace (Sanwa Kagaku Kenkyusho, Nagoya, Japan). Serum insulin and leptin were determined with ELISA kits (Morinaga Institute of Biological Science, Yokohama, Japan). Serum adiponectin and tumor necrosis factor-α (TNF-α) concentrations were measured with an ELISA kit (Ohtsuka Pharmaceutical, Tokyo, Japan) and a TNF-α assay kit (Amersham Biosciences, Uppsala, Sweden), respectively. […]
# [4] = system: human colon cancer cells (CoCM-1); test: Cell proliferation / cell death assay, CoCM-1; format: cell-based; conditions: CoCM-1, 10-100 μM
# Experimental: as §1
# (§6) Cell proliferation assays were performed with the CellTiter 96 AQueous One Solution Cell Proliferation Assay kit according to the manufacturer's instructions (Promega, Madison, Wis., USA). Briefly, 5×10^3 cells/well in medium were placed onto 96-well plates. IGs were added to cellular cultures at final concentrations of 0, 1, 10, and 100 μM. Cultures were incubated for 3 days or 7 days and then added to 20 μL/well of CellTiter 96 AQueous One Solution Reagent, which contains a tetrazolium compound, 3-(4,5-dimethylthiazol-2-yl)-5-(3-carboxymethoxyphenyl)-2-(4-sulfophenyl)-2H-tetrazolium, an inner salt; MTS was added to the culture medium. After incubating the plate for 1 h in a CO2 incubator, absorbance at 490 nm was recorded with a 96-well plate reader.
# [5] = system: human umbilical vein endothelial cells (HUVEC); test: Cell death of human umbilical vein endothelial cells; format: cell-based; conditions: in 1 hour
# [6] = system: ob/ob obese mice; test: IG-1 treatment for 28 days, ob/ob obese mice; format: in vivo; conditions: IG1 1 mg, Mean ± SD (n = 6)
# Experimental: (§7) Blood glucose was assayed with Glucose Ace (Sanwa Kagaku Kenkyusho, Nagoya, Japan). Serum insulin and leptin were determined with ELISA kits (Morinaga Institute of Biological Science, Yokohama, Japan). Serum adiponectin and tumor necrosis factor-α (TNF-α) concentrations were measured with an ELISA kit (Ohtsuka Pharmaceutical, Tokyo, Japan) and a TNF-α assay kit (Amersham Biosciences, Uppsala, Sweden), respectively. Serum total cholesterol, triglyceride, and FFA concentrations were determined with a Cholescolor liquid, Lipidos liquid (TOYOBO, Osaka, Japan), and NEFA C (Wako Pure Chemical, Osaka, Japan) kits, respectively.
# [7] = system: Panc-1 cells; test: ATP contents in Panc-1 cells; format: cell-based, human; conditions: 1 hour incubation in serum free media
# Experimental: as §1
# [8] = system: C57B/6 mice on high-fat diets; test: Intraperitoneal IG1 for 7 days, mice on high-fat diets; format: in vivo
# Experimental: Male C57BL/6 mice were housed individually and given free access to a standard diet (65% carbohydrate, 4% fat, and 24% protein) or a high-fat diet (Quick Fat; 60.2% carbohydrate, 15.3% fat, and 24.5% protein; Clea Japan, Tokyo, Japan), starting at 5 weeks of age, for 5 weeks. Db/db mice also were housed individually and given free access to a standard diet. C57BL/6 mice at 5 weeks of age, were received a single dose of 75 μg/g body weight streptozotoxin (STZ). 7 days after injections, the mice, whose fasting plasma glucose concentrations were over 400 mg/dl, were used as STZ-diabetic mice. Animal study protocols were in accordance with the institutional guidelines for animal experiments at Tohoku University.
# Frozen livers were homogenized, and triglycerides were extracted with CHCl3:CH3OH (2:1, vol:vol), dried and resuspended in 2-propanol (17). Triglyceride contents were measured using Lipidos liquid (TOYOBO, Osaka, Japan). Glycogen was isolated from 30-50 mg of frozen liver by dissolving the tissue in 30% potassium hydroxide saturated with Na2SO4 for 30 min at 100° C., followed by ethanol precipitation. Glycogen content was determined by the phenol-sulfuric acid spectrophotometric method at 490 nm (18) and expressed as micrograms of glycogen per milligram of liver.
# as §7
# Glucose tolerance was assessed with intraperitoneal glucose tolerance. Glucose tolerance tests were performed on fasted (16 h) mice. Mice were given intraperitoneal glucose (2 g/kg body wt), and blood glucose was assayed immediately before and at 15, 30, 60, and 120 min after administration.
# [9] = system: C57B/6 mice on high-fat diets; test: Intravenous administration of IG1, mice on high-fat diets; format: in vivo
# Experimental: as §3, §4, §5
# [10] = system: human hepatoma (HuH7); test: Cell proliferation / cell death assay, HuH7; format: cell-based; conditions: HuH7, 10-100 μM
# Experimental: as §1, §2
# [11] = system: AGS; test: Cell proliferation / cell death assay, AGS; format: cell-based, human; conditions: 10-100 μM
# Experimental: as §1, §6
# [12] = high fat-diets, IG1 1 mg, 7 days, Mean ± SD (n = 6)
smiles,measurement,setting,value
"CCCCCCCCCCCCCCCC(=O)O[C@@H]1C(O)C(O)[C@H](O)C(O[C@H]2OC(CO)[C@@H](O)[C@H](O)C2N)C1O (stereo in doubt) [IG1, 2-Amino-2-deoxy-α-D-glucopyranosyl-(1→6)-2-palmitoyl-D-myo-inositol]",lactate production (aerobic glycolysis),[1],inhibits lactate production
same,cell death,"[2]; Panc-1, 1 hour after addition, 10-100 μM",induced very rapid cell death; also recorded: induced rapid cell death
same,cell death,"[2]; Panc-1, after 24 hours",induced rapid cell death
same,cell death,"[2]; Panc-1, after 3 days (72 hours)",induced rapid cell death
same,glucose tolerance,[3],improves glucose tolerance
same,hepatic and muscular glycogen synthesis,[3],increases hepatic and muscular glycogen synthesis
same,rapid cancer cell death,[4],rapid cancer cell death was demonstrated
same,cell death of HUVEC,[5],induces rapid cell death
same,Adiponectin,[6],47.6 ± 4.6 µg/mL
same,Body weight,[6],40.1 ± 3.2 g
same,Fasting plasma glucose,[6],66.1 ± 8.3 mg/dL
same,Fasting plasma insulin,[6],16.3 ± 4.3 ng/mL
same,Food intake,[6],4.53 ± 0.74 g/day
same,NEFA,[6],0.88 ± 0.34 mEq/l
same,TNF-1α,[6],34.7 ± 6.7 pg/mL
same,Total cholesterol,[6],172.4 ± 13.6 mg/dL
same,Triglyceride,[6],31.2 ± 5.3 mg/dL
same,ATP contents,[7],does not affect ATP contents
same,hepatic and muscular glycogen contents,"[8]; after 7 days, data not shown",increases hepatic and muscular glycogen contents
same,hepatic triglyceride contents,"[8]; after 7 days, data not shown",decreases hepatic triglyceride contents
same,Adiponectin,[8]; [12],50.4 ± 4.8 µg/mL
same,Body weight,[8]; [12],32.1 ± 1.8 g
same,Fasting plasma glucose,[8]; [12],62.8 ± 6.3 mg/dL
same,Fasting plasma insulin,[8]; [12],0.44 ± 0.19 ng/mL
same,Food intake,[8]; [12],2.93 ± 0.37 g/day
same,Leptin,[8]; [12],17.3 ± 5.4 ng/mL
same,NEFA,[8]; [12],0.78 ± 0.18 mEq/l
same,TNF-1α,[8]; [12],33.7 ± 4.4 pg/mL
same,Total cholesterol,[8]; [12],177.9 ± 24.6 mg/dL
same,Triglyceride,[8]; [12],26.2 ± 4.4 mg/dL
same,glucose tolerance,"[8]; intraperitoneal, 1 mg per mice, for every 7 days",significantly improved glucose tolerance
same,plasma glucose concentrations,"[9]; intravenous, 0.3-1 mg per mice, 90-300 min after administration",significantly reduced plasma glucose concentrations
same,hepatic and muscular glycogen contents,"[9]; mice on high-fat diets, data not shown",significantly increases hepatic and muscular glycogen contents
same,rapid cancer cell death,[10],rapid cancer cell death was demonstrated
same,rapid cancer cell death,[11],rapid cancer cell death was demonstrated
